# From article PMC4757855, “Discovery of high affinity inhibitors of Leishmania donovani N-myristoyltransferase” (Medchemcomm, 2015)
# “Also recorded” adds a separate entry of the source. Like-named read-outs stand apart in the source and are kept apart here.
# Columns and labels:
# [1] = target: T1, HsNMT1 (Homo sapiens, UniProt P30419); assay: HsNMT1 enzyme assay (CPM fluorescence); format: biochemical; settings: apparent Ki calculated from IC50 with Cheng–Prusoff equation, read-out: HsNMT Ki
# T1 sequence (P30419 1-496): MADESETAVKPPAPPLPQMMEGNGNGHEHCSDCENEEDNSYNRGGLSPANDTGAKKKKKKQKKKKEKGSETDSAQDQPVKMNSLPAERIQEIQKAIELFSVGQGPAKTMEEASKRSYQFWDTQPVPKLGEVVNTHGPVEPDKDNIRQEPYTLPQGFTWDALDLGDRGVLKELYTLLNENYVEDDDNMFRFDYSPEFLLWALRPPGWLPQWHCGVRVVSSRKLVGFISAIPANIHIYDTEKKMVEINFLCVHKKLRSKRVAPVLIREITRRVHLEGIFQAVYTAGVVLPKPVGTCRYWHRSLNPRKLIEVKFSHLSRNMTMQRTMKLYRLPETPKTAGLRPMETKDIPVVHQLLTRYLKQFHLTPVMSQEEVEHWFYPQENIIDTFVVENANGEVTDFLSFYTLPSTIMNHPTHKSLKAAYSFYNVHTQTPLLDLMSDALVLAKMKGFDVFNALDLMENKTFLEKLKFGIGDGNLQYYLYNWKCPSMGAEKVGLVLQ
# Procedure: Enzyme assay information. All IC 50 determinations were carried out using a 7-diethylamine-3-(4’maleimidylphenyl)-4-methylcoumarin (CPM) fluorescence assay, as described by previously. […]
# IC 50 of an inhibitor was calculated by a nonlinear regression analysis using GraFit 7.0.1 version (Erithacus Software Limited, UK).The values are the mean […]
# (§1) Ki values were calculated from the experimentally determined IC 50 values, the substrate concentration ([S]) and the Michaelis-Menten constant (K m) as described by […]
# [2] = target: T2, PfNMT (Plasmodium falciparum, UniProt Q9U419); assay: biochemical; format: biochemical; settings: for PfNMT LE: LE = [–log(Ki)](1.374)/(no. of heavy atoms); for Ki: apparent Ki calculated from IC50 with Cheng–Prusoff equation
# T2 sequence (Q9U419 1-410): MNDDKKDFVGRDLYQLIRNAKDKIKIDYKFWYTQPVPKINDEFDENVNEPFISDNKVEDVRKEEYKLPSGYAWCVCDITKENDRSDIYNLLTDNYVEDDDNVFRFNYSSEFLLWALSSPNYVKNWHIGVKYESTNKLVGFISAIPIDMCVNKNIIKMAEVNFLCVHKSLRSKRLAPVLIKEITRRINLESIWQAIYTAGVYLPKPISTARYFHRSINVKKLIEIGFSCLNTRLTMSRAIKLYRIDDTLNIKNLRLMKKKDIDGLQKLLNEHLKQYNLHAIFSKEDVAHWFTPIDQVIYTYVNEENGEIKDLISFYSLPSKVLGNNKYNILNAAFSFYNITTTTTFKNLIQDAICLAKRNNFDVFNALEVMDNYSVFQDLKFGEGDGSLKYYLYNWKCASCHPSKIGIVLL
# Procedure: (§2) Enzyme assay information. All IC 50 determinations were carried out using a 7-diethylamine-3-(4’maleimidylphenyl)-4-methylcoumarin (CPM) fluorescence assay, as described by previously. 2–4 The HsNMT1, PfNMT and PvNMT assays are as described in the literature, for LdNMT the final enzyme concentration and peptide substrates are: [LdNMT]: 400 ng/mL; LdNMT Peptide Substrate: Homo sapiens […]
# (§3) p60src (2-16) with sequence […]-NH 2 and the final concentration was 4.0 μM. IC 50 of an inhibitor was calculated by a nonlinear regression analysis using GraFit 7.0.1 version (Erithacus Software Limited, UK).The values are the mean value of two determinations; standard deviation is within 20% of the IC 50 unless […]
# as §1
# [3] = target: T3, PvNMT (Plasmodium vivax, UniProt A5K1A2); assay: biochemical; format: biochemical; settings: for PvNMT LE: LE = [–log(Ki)](1.374)/(no. of heavy atoms); for Ki: apparent Ki calculated from IC50 with Cheng–Prusoff equation
# T3 sequence (A5K1A2 1-410): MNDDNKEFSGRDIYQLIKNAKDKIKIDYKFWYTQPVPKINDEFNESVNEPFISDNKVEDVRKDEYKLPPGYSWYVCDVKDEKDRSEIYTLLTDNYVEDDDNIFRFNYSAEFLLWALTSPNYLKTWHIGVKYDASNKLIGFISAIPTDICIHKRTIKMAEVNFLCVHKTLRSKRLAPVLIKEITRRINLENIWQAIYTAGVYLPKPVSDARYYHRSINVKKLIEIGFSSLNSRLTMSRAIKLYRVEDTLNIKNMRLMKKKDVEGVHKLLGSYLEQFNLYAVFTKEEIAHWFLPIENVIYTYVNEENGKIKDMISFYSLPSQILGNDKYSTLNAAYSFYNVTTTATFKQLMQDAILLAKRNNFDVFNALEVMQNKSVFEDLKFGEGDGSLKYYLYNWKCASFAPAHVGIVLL
# Procedure: as §2, §3, §1
# [4] = target: LdNMT (Leishmania donovani, UniProt D0AB09); assay: biochemical; format: biochemical; settings: for Ki: apparent Ki calculated from IC50 with Cheng–Prusoff equation
# Procedure: as §2
# (§4) was 4.0 μM. IC 50 of an inhibitor was calculated by a nonlinear regression analysis using GraFit 7.0.1 version (Erithacus Software Limited, UK).The values are the mean […]
# as §1
# [5] = system: LdNMT; assay: biochemical; format: biochemical
# Procedure: as §2, §4, §1
# [6] = system: L. donovani amastigotes; assay: L. donovani ex-vivo amastigotes inhibition assay (alamar blue); format: cell-based, Leishmania donovani; settings: for EC50: Leishmania donovani, ex vivo L. donovani amastigotes, 72 hour incubation, read-out: Ld EC50
# Procedure: L. donovani ex-vivo amastigotes inhibition assay. Assays were carried out as
# described by Paape and colleagues.
# recorded with a 590nm±10nm bandpass filter, POLARstar Optima). Parasites cultured
# [1-(readout-medium)/(positive-medium)] x 100%. Assays were carried out in
# Macrophage toxicity test. Assays were carried out as described by Paape and […]
# [7] = system: bone marrow-derived macrophage (BMDM); settings: 72 h
# Procedure: (§5) colleagues.6 Briefly, bone marrow-derived macrophage (BMDM, 4.2 × 10^4/well of
# (§6) 96-well plate ) were incubated at the relevant concentrations of test compounds in
# (§7) DMEM medium containing 4% L929 cell and 10% FCS (fetal calf serum). Cells were
# (§8) incubated at 37 °C and 5% CO2 for 72 hours. Aalamar blue (10% v/v) was added to
# (§9) measuring the fluorescence as described above. Medium without cells containing the
# (§10) corresponding concentration of compound was used as a medium control. Assays
# were performed in duplicate.
# [8] = Stability on incubation over a wide pH range; format: physicochemical; settings: 37 °C, pH 1–10, 24 hours, data not shown
# Description: The binding mode of 10j to Leishmania major NMT (98% sequence identity to LdNMT with closely superimposable ligand binding sites)[14],[29] was confirmed by determination of the crystal structure of the ternary complex of LmNMT, myrisotyl-CoA and 10j (PDB ID:; 5a27). The inhibitor binds in the expected site adjacent to the enzyme's C-terminal carboxylate to which its piperidine forms an ion pairing interaction. This and other key interactions are conserved in a related series in PvNMT.[24] […] This ‘ring opening’ phenomenon has been observed in related compounds within the program,[27] although to our knowledge, it has not been reported elsewhere. The origin of the ring-opened species observed in the crystals remains unclear, and further investigation is underway to determine the cause of this discrepancy (such as potential radiation damage). As characterisation of the compounds was consistent with the proposed oxadiazoles, the development of the series was continued.
# [9] = system: bone marrow-derived macrophage (BMDM); assay: Macrophage toxicity test (alamar blue); settings: top concentration tested 90 μM
# Procedure: as §5, §6, §7, §8, §9, §10
# were performed in duplicate.
# Chain of LdNMT (Leishmania donovani, UniProt D0AB09) (D0AB09 entry or part of it): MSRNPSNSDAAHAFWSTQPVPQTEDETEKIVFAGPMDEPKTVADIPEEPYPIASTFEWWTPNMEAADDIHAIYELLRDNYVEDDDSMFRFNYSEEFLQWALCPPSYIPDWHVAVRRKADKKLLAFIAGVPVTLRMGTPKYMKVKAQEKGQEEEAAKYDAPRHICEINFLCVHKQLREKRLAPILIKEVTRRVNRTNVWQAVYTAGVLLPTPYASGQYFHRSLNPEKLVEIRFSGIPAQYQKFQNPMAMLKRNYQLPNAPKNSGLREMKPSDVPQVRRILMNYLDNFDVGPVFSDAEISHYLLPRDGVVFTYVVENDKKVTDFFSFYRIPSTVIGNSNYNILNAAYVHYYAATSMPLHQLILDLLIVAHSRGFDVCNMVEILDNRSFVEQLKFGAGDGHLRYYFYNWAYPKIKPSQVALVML
compound,measurement,setting,value
COc1cccc(COC(=O)c2sc3ccccc3c2OC2CCNCC2)c1 [Compound 1],Ki,[1],3.2 µM
same,PfNMT LE,[2],0.30
same,Ki,[2],0.83 µM
same,PvNMT LE,[3],0.35
same,Ki,[3],0.08 µM
same,Ki,"[4]; […], read-out: LdNMT Ki",5.82 µM
COc1cccc(COC(=O)c2sccc2OC2CCNCC2)c1 [Compound 5],Ki,[1],> 100 µM
same,Ki,[2],> 100 µM
same,PvNMT LE,[3],0.30
same,Ki,[3],6.5 µM
same,LdNMT LE,[4],0.35
same,improvement in LdNMT enzyme affinity,[4],8 fold
same,Ki,"[4]; […], read-out: LdNMT Ki",0.73 µM
same,IC50,"[4]; experimentally determined, substrate 4.0 μM",0.82 ± 0.14 µM
COc1cccc(COC(=O)c2ccccc2OC2CCNCC2)c1 [Compound 6],Ki,[1],> 100 µM
same,PfNMT LE,[2],0.29
same,Ki,[2],6 µM
same,PvNMT LE,[3],0.31
same,Ki,[3],2.42 µM
same,LdNMT LE,[4],0.36
same,Ki,"[4]; […], read-out: LdNMT Ki",0.28 µM
COc1cccc(Cc2noc(-c3ccccc3OC3CCNCC3)n2)c1 [Compound 10a],Ki,[1],1.24 µM
same,selectivity in favour of the parasite enzyme (LdNMT over HsNMT),[5],20 fold
same,LdNMT LE,[4],0.37
same,improvement in LdNMT enzyme affinity,"[4]; 5 relative to 1, 10a relative to 6",~ 4 fold
same,EC50,[6],> 30 µM
COc1cccc(Cc2noc(-c3cccc(OC)c3OC3CCNCC3)n2)c1 [Compound 10b],Ki,[1],7.23 µM
same,LdNMT LE,[4],0.26
same,Ki,"[4]; […], read-out: LdNMT Ki",4.02 µM
COc1cccc(Cc2noc(-c3cccc(C)c3OC3CCNCC3)n2)c1 [Compound 10c],Ki,[1],7.44 µM
same,LdNMT LE,[4],0.29
same,Ki,"[4]; […], read-out: LdNMT Ki",1.43 µM
COc1cccc(Cc2noc(-c3ccc(C)cc3OC3CCNCC3)n2)c1 [Compound 10d],Ki,[1],4.64 µM
same,LdNMT LE,[4],0.26
same,Ki,"[4]; […], read-out: LdNMT Ki",5.18 µM
COc1cccc(Cc2noc(-c3ccc(OC)cc3OC3CCNCC3)n2)c1 [Compound 10e],Ki,"[4]; […], read-out: LdNMT Ki",3.04 µM
COc1cccc(Cc2noc(-c3ccc(F)cc3OC3CCNCC3)n2)c1 [Compound 10g],Macrophage LD50,[7],29.5 µM
COc1cccc(Cc2noc(-c3ccc(Br)cc3OC3CCNCC3)n2)c1 [Compound 10h],Ki,"[4]; […], read-out: LdNMT Ki",0.68 µM
COc1cccc(Cc2noc(-c3cc(C)ccc3OC3CCNCC3)n2)c1 [Compound 10i],Ki,"[4]; […], read-out: LdNMT Ki",0.24 µM
COc1cccc(Cc2noc(-c3cc(Cl)ccc3OC3CCNCC3)n2)c1 [Compound 10j],degradation on incubation,[8],no degradation
same,EC50,[6],6.7 µM
same,Macrophage LD50,[7],18.0 µM
COc1cccc(Cc2noc(-c3cc(OC)ccc3OC3CCNCC3)n2)c1 [Compound 10k],EC50,[6],13.5 µM
same,Macrophage LD50,[7],27.9 µM
Cc1nn(C)c(C)c1Cc1nnc(-c2cc(Cl)ccc2OC2CCNCC2)o1 [Compound 13],Ki,"[4]; […], read-out: LdNMT Ki",0.01 µM
same,macrophage toxicity,[9],did not display any macrophage toxicity; also recorded: no macrophage toxicity
same,EC50,[6],> 50 µM
same,effect against ex vivo amastigotes,[6]; up to 50 μM,no observed effect; also recorded: failed to inhibit
same,Macrophage LD50,[7],>90 µM
